PubChem BioAssay (NCI)
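The compound was tested at five concentrations on cells cultured in 96-well plates, with a 48-hour exposure period. Abbreviation: GI50, concentration required for 50% inhibition of growth. At the TGI there is no net growth.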

What was measured:
Assay in all cases: NCI anticancer screen, dose series, 48 h
786-0 renal = tested on: 786-0 renal
A498 renal = tested on: A498 renal
A549 NSCLC = tested on: A549 NSCLC
ACHN renal = tested on: ACHN renal
BT-549 breast = tested on: BT-549 breast
CAKI-1 renal = tested on: CAKI-1 renal
CCRF-CEM leukemia = tested on: CCRF-CEM leukemia
COLO 205 colon = tested on: COLO 205 colon
DU-145 prostate = tested on: DU-145 prostate
EKVX NSCLC = tested on: EKVX NSCLC
HCC-2998 colon = tested on: HCC-2998 colon
HCT-116 colon = tested on: HCT-116 colon
HCT-15 colon = tested on: HCT-15 colon
HL-60(TB) leukemia = tested on: HL-60(TB) leukemia
HOP-62 NSCLC = tested on: HOP-62 NSCLC
HOP-92 NSCLC = tested on: HOP-92 NSCLC
HS 578T breast = tested on: HS 578T breast
HT29 colon = tested on: HT29 colon
IGROV1 ovarian = tested on: IGROV1 ovarian
K-562 leukemia = tested on: K-562 leukemia
KM12 colon = tested on: KM12 colon
LOX IMVI melanoma = tested on: LOX IMVI melanoma
M14 melanoma = tested on: M14 melanoma
MALME-3M melanoma = tested on: MALME-3M melanoma
MCF7 breast = tested on: MCF7 breast
MDA-MB-231 breast = tested on: MDA-MB-231 breast
MDA-MB-435 = tested on: MDA-MB-435
MOLT-4 leukemia = tested on: MOLT-4 leukemia
NCI-H226 lung = tested on: NCI-H226 lung
NCI-H23 lung = tested on: NCI-H23 lung
NCI-H460 lung = tested on: NCI-H460 lung
NCI-H522 lung = tested on: NCI-H522 lung
NCI/ADR-RES ovarian = tested on: NCI/ADR-RES ovarian
OVCAR-3 ovarian = tested on: OVCAR-3 ovarian
OVCAR-4 ovarian = tested on: OVCAR-4 ovarian
OVCAR-5 ovarian = tested on: OVCAR-5 ovarian
OVCAR-8 ovarian = tested on: OVCAR-8 ovarian
PC-3 prostate = tested on: PC-3 prostate
RPMI-8226 leukemia = tested on: RPMI-8226 leukemia
RXF 393 renal = tested on: RXF 393 renal
SF-268 CNS = tested on: SF-268 CNS
SF-295 CNS = tested on: SF-295 CNS
SF-539 CNS = tested on: SF-539 CNS
SK-MEL-2 melanoma = tested on: SK-MEL-2 melanoma
SK-MEL-28 melanoma = tested on: SK-MEL-28 melanoma
SK-MEL-5 melanoma = tested on: SK-MEL-5 melanoma
SK-OV-3 ovarian = tested on: SK-OV-3 ovarian
SN12C renal = tested on: SN12C renal
SNB-19 CNS = tested on: SNB-19 CNS
SNB-75 CNS = tested on: SNB-75 CNS
SR leukemia = tested on: SR leukemia
SW-620 colon = tested on: SW-620 colon
T-47D breast = tested on: T-47D breast
TK-10 renal = tested on: TK-10 renal
U251 CNS = tested on: U251 CNS
UACC-257 melanoma = tested on: UACC-257 melanoma
UACC-62 melanoma = tested on: UACC-62 melanoma
UO-31 renal = tested on: UO-31 renal

## O=C1/C=C/[C@@H](O)[C@@H]2C[C@@H](O)C[C@H]2/C=C/CCC[C@H](CCc2ccccc2)O1
786-0 renal
  GI50: 12.5 nM
  TGI: 45.3 nM
A498 renal
  GI50: < 11.8 nM
  TGI: 40.9 nM
A549 NSCLC
  GI50: 40.8 nM
  TGI: > 100000 nM
ACHN renal
  GI50: 37.1 nM
  TGI: > 100000 nM
BT-549 breast
  GI50: 48.5 nM
  TGI: 14300 nM
CAKI-1 renal
  GI50: 36.1 nM
  TGI: 3650 nM
CCRF-CEM leukemia
  GI50: 39.1 nM
  TGI: > 59400 nM
COLO 205 colon
  GI50: 19.7 nM
  TGI: 36.9 nM
DU-145 prostate
  GI50: 49.9 nM
  TGI: > 100000 nM
EKVX NSCLC
  GI50: 36.9 nM
  TGI: 14600 nM
HCC-2998 colon
  GI50: 29.6 nM
  TGI: 994 nM
HCT-116 colon
  GI50: 23.1 nM
  TGI: 54.9 nM
HCT-15 colon
  GI50: 34.3 nM
  TGI: 13000 nM
HL-60(TB) leukemia
  GI50: 30.7 nM
  TGI: 128 nM
HOP-62 NSCLC
  GI50: 37.1 nM
  TGI: 20500 nM
HOP-92 NSCLC
  GI50: 31 nM
  TGI: 396 nM
HS 578T breast
  GI50: < 10 nM
  TGI: 21700 nM
HT29 colon
  GI50: 31.5 nM
  TGI: 470 nM
IGROV1 ovarian
  GI50: 40.2 nM
  TGI: 13200 nM
K-562 leukemia
  GI50: 38.4 nM
  TGI: 22700 nM
KM12 colon
  GI50: < 10 nM
  TGI: 26.3 nM
LOX IMVI melanoma
  GI50: 21.1 nM
  TGI: 48 nM
M14 melanoma
  GI50: 26.4 nM
  TGI: 10700 nM
MALME-3M melanoma
  GI50: 23.1 nM
  TGI: 85.4 nM
MCF7 breast
  GI50: 23.4 nM
  TGI: 55.1 nM
MDA-MB-231 breast
  GI50: 20.4 nM
  TGI: 42.7 nM
MDA-MB-435
  GI50: 36.5 nM
  TGI: 14000 nM
MOLT-4 leukemia
  GI50: 36 nM
NCI-H226 lung
  GI50: 17.9 nM
  TGI: 74.8 nM
NCI-H23 lung
  GI50: 33.4 nM
  TGI: 285 nM
NCI-H460 lung
  GI50: 38.9 nM
  TGI: 15700 nM
NCI-H522 lung
  GI50: 41.2 nM
  TGI: 200 nM
NCI/ADR-RES ovarian
  GI50: 28.9 nM
  TGI: 823 nM
OVCAR-3 ovarian
  GI50: 25.4 nM
  TGI: 61.1 nM
OVCAR-4 ovarian
  GI50: 37.3 nM
  TGI: 9480 nM
OVCAR-5 ovarian
  GI50: 57.3 nM
  TGI: > 100000 nM
OVCAR-8 ovarian
  GI50: 29.4 nM
  TGI: 12700 nM
PC-3 prostate
  GI50: 44.4 nM
  TGI: 24800 nM
RPMI-8226 leukemia
  GI50: 41.4 nM
  TGI: 5310 nM
RXF 393 renal
  GI50: < 10 nM
  TGI: < 21.2 nM
SF-268 CNS
  GI50: 22.9 nM
  TGI: 7380 nM
SF-295 CNS
  GI50: 38 nM
  TGI: > 50000 nM
SF-539 CNS
  GI50: 53.2 nM
  TGI: > 66500 nM
SK-MEL-2 melanoma
  GI50: 31.8 nM
  TGI: 100 nM
SK-MEL-28 melanoma
  GI50: < 10 nM
  TGI: 45.6 nM
SK-MEL-5 melanoma
  GI50: < 10 nM
  TGI: 16.8 nM
SK-OV-3 ovarian
  GI50: 34.3 nM
  TGI: 27000 nM
SN12C renal
  GI50: 37.3 nM
  TGI: 14100 nM
SNB-19 CNS
  GI50: 51.4 nM
  TGI: > 88100 nM
SNB-75 CNS
  GI50: < 12.4 nM
  TGI: 33800 nM
SR leukemia
  GI50: 35 nM
SW-620 colon
  GI50: 28.7 nM
  TGI: 84.7 nM
T-47D breast
  GI50: 48.3 nM
  TGI: 30700 nM
TK-10 renal
  GI50: 34.8 nM
  TGI: 206 nM
U251 CNS
  GI50: 40.6 nM
  TGI: 30100 nM
UACC-257 melanoma
  GI50: 37.5 nM
  TGI: 21700 nM
UACC-62 melanoma
  GI50: 46.7 nM
  TGI: 9000 nM
UO-31 renal
  GI50: 31.7 nM
  TGI: 13400 nM
